Source: ChEMBL document CHEMBL3351756, “Synthesis and evaluation of the antiplasmodial activity of novel indeno[2,1-c]quinoline derivatives” (Bioorg Med Chem, 2014)
≈ marks a conversion by molar mass, not a printed value.

Assays:
Plasmodium falciparum [1] = assay: Antimalarial activity against Plasmodium falciparum K1; type: functional, organism-based
[2] = Resistance index, ratio of IC50 for chloroquine-resistant Plasmodium falciparum W2 to IC50 for chloroquine-sensitive Plasmodium falciparum D10; type: functional
Plasmodium falciparum [3] = assay: Antimalarial activity against chloroquine-sensitive Plasmodium falciparum 3D7 infected in human type A-positive red blood cells assessed as growth inhibition after 72 hrs by spectrophotometrically; type: functional, organism-based; conditions: 3D7, 72 h
Plasmodium falciparum [4] = assay: Antimalarial activity against chloroquine-sensitive Plasmodium falciparum D10 infected in human type A-positive red blood cells assessed as growth inhibition after 72 hrs by spectrophotometrically; type: functional; conditions: D10, 72 h
[5] = Resistance index, ratio of IC50 for chloroquine-resistant Plasmodium falciparum W2 to IC50 for chloroquine-sensitive Plasmodium falciparum 3D7; type: functional
Plasmodium falciparum [6] = assay: Antimalarial activity against chloroquine-resistant Plasmodium falciparum W2 infected in human type A-positive red blood cells assessed as growth inhibition after 72 hrs by spectrophotometrically; type: functional, organism-based; conditions: W2, 72 h
[7] = Selectivity index, ratio of CC50 for HMEC1 to IC50 for chloroquine-resistant Plasmodium falciparum W2; type: functional
[8] = Cytotoxicity against HMEC1 assessed as cell growth inhibition after 72 hrs by MTT assay; set-up: species or system HMEC-1; conditions: human, HMEC1 cells
[9] = Selectivity index, ratio of CC50 for HMEC1 to IC50 for chloroquine-sensitive Plasmodium falciparum D10; type: functional
Plasmodium falciparum [10] = assay: Antimalarial activity against Plasmodium falciparum Dd2; type: functional
[11] = tested on: Mycobacterium tuberculosis; assay: Antimycobacterial activity against Mycobacterium tuberculosis; type: functional
[12] = Selectivity index, ratio of CC50 for HMEC1 to IC50 for chloroquine-sensitive Plasmodium falciparum 3D7; type: functional
Heme = assay: Binding affinity to heme assessed as inhibition of beta-hematin formation measured as compound IC50 to haemin molar ratio by BHIA assay

Row | Compound | Ratio IC50 [2] | IC50 (Plasmodium falciparum [3]) | IC50 (Plasmodium falciparum [4]) | Ratio IC50 [5] | IC50 (Plasmodium falciparum [6]) | Ratio CC50/IC50 [7] | CC50 at 72 h [8] | Ratio CC50/IC50 [9] | further results
1 | Clc1ccc(/C(=C\[C@@H]2CCCN3CCCC[C@H]23)c2ccccc2)cc1Cl | – | – | – | – | – | – | – | – | IC50 (Plasmodium falciparum [1]): 400 nM
2 | O/N=C1\c2ccccc2-c2c1c(NCCN1CCOCC1)nc1cc(Cl)ccc21 | 1 | 5390 nM | 2840 nM | 0.5 | 2730 nM | – | – | – | –
3 | O/N=C1\c2ccccc2-c2c1c(-n1ccnc1)nc1ccc(Cl)cc21 | – | – | > 5000 nM | – | > 5000 nM | – | – | – | –
4 | CN1CCN(CCNc2nc3cc(Cl)ccc3c3c2C(=O)c2ccccc2-3)CC1 | 1.1 | – | 468 nM | – | 534 nM | 5.9 | 3120 nM | 6.7 | –
5 | CCN(CC)CCCC(C)Nc1ccnc2cc(Cl)ccc12 (centres undefined) [CHLOROQUINE] | – | – | – | – | – | – | > 38000 nM | – | –
6 | O=C1c2ccccc2-c2c1c(N1CCN(c3ccccn3)CC1)nc1ccc(Cl)cc21 | 1.1 | – | 6080 nM | – | 6940 nM | – | – | – | –
7 | O=C(c1ccc2[nH]ccc2c1)N1CCN(C2c3ccccc3-c3ccccc32)CC1 | – | 16900 nM | – | – | – | – | – | – | IC50 (Plasmodium falciparum [10]): 21600 nM
8 | Clc1ccc(C(=C[C@@H]2CCCN3CCCC[C@H]23)c2ccc(Cl)cc2)cc1 | – | – | – | – | – | – | – | – | MIC [11]: 1.6 µM (≈ 0.618 µg/mL)
9 | CN1CCN(CCNc2nc3ccc(Cl)cc3c3c2/C(=N/O)c2ccccc2-3)CC1 | 1 | 818 nM | 667 nM | 0.8 | 699 nM | 3.7 | 2580 nM | 3.9 | Ratio CC50/IC50 [12]: 3.2
10 | CN1CCN(CCNc2nc3cc(Cl)ccc3c3c2/C(=N/O)c2ccccc2-3)CC1 | 1.6 | – | 676 nM | – | 1060 nM | 2.8 | 2940 nM | 4.4 | –
11 | C(=C(c1ccccc1)c1ccccc1)[C@@H]1CCCN2CCCC[C@H]12 | – | – | – | – | – | – | – | – | MIC [11]: 3.9 µM (≈ 1.24 µg/mL)
12 | COc1nc2ccc(Cl)cc2c2c1/C(=N/NC(=N)N)c1ccccc1-2 | 1.2 | – | 360 nM | – | 432 nM | 4 | 1720 nM | 4.8 | –
13 | CN1CCN(c2nc3ccc(Cl)cc3c3c2C(=O)c2ccccc2-3)CC1 | 0.7 | – | 1640 nM | – | 1190 nM | 3.4 | 4030 nM | 2.5 | –
14 | COc1nc2ccc(Cl)cc2c2c1/C(=N/N1CCN(C)CC1)c1ccccc1-2 | 0.7 | – | 4580 nM | – | 3160 nM | 1.7 | 5280 nM | 1.2 | –
15 | CN1CCN(CCNc2nc3ccc(Cl)cc3c3c2C(=O)c2ccccc2-3)CC1 | 0.8 | 1030 nM | 703 nM | 0.5 | 568 nM | 3.4 | 1940 nM | 2.8 | Ratio CC50/IC50 [12]: 1.9
16 | O=C1c2ccccc2-c2c1c(NCCN1CCCCC1)nc1cc(Cl)ccc21 | – | 2340 nM | – | 0.5 | 1170 nM | – | – | – | –
17 | CCC(=O)O/N=C1\c2ccccc2-c2c1c(N1CCN(c3ccccn3)CC1)nc1ccc(Cl)cc21 | 1 | – | 4050 nM | – | 4160 nM | > 8.4 | > 35000 nM | > 8.7 | –
18 | O/N=C1\c2ccccc2-c2c1c(NCCN1CCCCC1)nc1ccc(Cl)cc21 | 0.3 | 843 nM | 850 nM | 0.3 | 255 nM | 12 | 3120 nM | 3.7 | IC50 (Heme): > 4 molar ratio; Ratio CC50/IC50 [12]: 3.7
19 | CCCCN(CCCC)CC(O)c1cc(Cl)cc2c1-c1ccc(Cl)cc1/C2=C/c1ccc(Cl)cc1 (centres undefined) [LUMEFANTRINE] | – | 12 nM | 12 nM | – | 12 nM | – | – | – | –
20 | Clc1cccc(/C(=C\[C@@H]2CCCN3CCCC[C@H]23)c2ccccc2)c1 | – | – | – | – | – | – | – | – | MIC [11]: 0.85 µM (≈ 0.299 µg/mL)
21 | C(=C1c2ccccc2-c2ccccc21)[C@@H]1CCCN2CCCC[C@H]12 | – | – | – | – | – | – | – | – | MIC [11]: 0.49 µM (≈ 0.155 µg/mL)
22 | c1ccc2c(c1)-c1ccccc1C2C[C@@H]1CCCN2CCCC[C@H]12 | – | – | – | – | – | – | – | – | MIC [11]: 20 µM (≈ 6.35 µg/mL)
23 | O/N=C1\c2ccccc2-c2c1c(N1CCN(c3ccccn3)CC1)nc1ccc(Cl)cc21 | 1 | – | 6610 nM | – | 6810 nM | > 5.6 | > 38000 nM | > 5.8 | –
24 | O=C1c2ccccc2-c2c1c(NCCN1CCCCC1)nc1ccc(Cl)cc21 | – | 1710 nM | – | 0.4 | 626 nM | – | – | – | –
25 | O/N=C1\c2ccccc2-c2c1c(NCCN1CCCCC1)nc1cc(Cl)ccc21 | – | 530 nM | – | 0.5 | 244 nM | 9.6 | 2340 nM | – | Ratio CC50/IC50 [12]: 4.4
26 | O=C1c2ccccc2-c2c1c(NCCN1CCOCC1)nc1cc(Cl)ccc21 | 0.7 | 6780 nM | 3760 nM | 0.4 | 2550 nM | – | – | – | –
